In brackets after ≈: the same amount, converted by molar mass. Where two headings read alike, the source gives them in different places.
Key:
Kinetic solubility study = format: physicochemical; conditions: PBS pH 7.4 with 1% DMSO, aqueous buffer, kinetic from dmso stock; PBS pH = 7.4, 2 hours, RT, 1% DMSO co-solvent; read-out: Kinetic sol.
Method: Following shaking of the suspension on an orbital shaker at 300 rpm for 2 hours, the suspension was clarified by vacuum filtration (Multiscreen® Vacuum Manifold; MilliporeSigma). Immediately following the filtration step, […] of the filtrate was transferred into […] of acetonitrile to avoid compound precipitation from the saturated solution. The concentration of the research compound was determined by HPLC-UV-(MS) detection, by using an external standard made from the same batch of research compound.

human D3 receptors [1] = biological target: T1, human D3 receptors (Homo sapiens (Human), UniProt P35462); experiment: Agonism at human D3 receptors, cAMP detection (HTRF) in HEK293 cells; format: cell-based; conditions: inhibition of forskolin-stimulated cAMP accumulation, HEK293 cells co-expressing adenylyl cyclase V; read-out: D3 cAMP pEC50 (converted)
Target sequence in this assay (P35462 whole entry): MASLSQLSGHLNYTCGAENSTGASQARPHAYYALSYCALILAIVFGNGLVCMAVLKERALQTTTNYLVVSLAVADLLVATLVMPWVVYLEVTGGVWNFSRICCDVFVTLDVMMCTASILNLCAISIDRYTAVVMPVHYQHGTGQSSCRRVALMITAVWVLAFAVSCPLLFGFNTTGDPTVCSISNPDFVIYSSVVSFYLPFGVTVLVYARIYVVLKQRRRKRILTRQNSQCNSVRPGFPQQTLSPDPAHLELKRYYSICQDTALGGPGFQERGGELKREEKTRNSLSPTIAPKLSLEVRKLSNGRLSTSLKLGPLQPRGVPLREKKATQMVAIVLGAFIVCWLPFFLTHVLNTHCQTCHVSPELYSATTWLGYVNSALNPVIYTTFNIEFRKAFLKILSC
Method: Characterization of Agonism at Human D3 Receptors Using Cyclic Adenosine Monophosphate Detection
Agonist activity at human D3 receptors was assayed by cAMP levels in HEK293 cells expressing recombinant human D3 receptors (BioXtal, Saint-Félix, France) stably co-expressing adenylyl cyclase V (ACV) (cell line developed by Gedeon Richter) by homogenous time-resolved fluorescence (HTRF) using the cAMP Gi kit (Cisbio/PerkinElmer). HEK293 cells expressing recombinant human D3 receptors and ACV were cultured in DMEM supplemented with 10% FBS, 1% penicillin-streptomycin antimycotic solution, 1% pyruvate, 100 μg/mL G418 (Thermo Fisher Scientific) and 60 μg/mL hygromycin B and maintained at 37° C. in a humidified atmosphere containing 5% CO2. […]
Results were calculated from the ratio of acceptor fluorescence signal (A665 nm) and donor fluorescence signal (A620 nm)×10^4 and expressed as ΔF % values using the following formula: 100× (ratio sample-ratio negative control)/ratio negative control. In all experiments multiple wells were measured in parallel, and the mean ΔF % values were used for further analysis. Agonist activity values were calculated as percentage of inhibition of forskolin-stimulated cAMP accumulation normalized to the response evoked by a maximally effective concentration of dopamine tested in the same experiment. […]

human D2L receptors [2] = biological target: T2, human D2L receptors (Homo sapiens (Human), UniProt P14416); experiment: β-arrestin recruitment to human dopamine D2L receptors (PathHunter CHO-K1); format: cell-based; conditions: β-arrestin-2 recruitment, CHO-K1 cells, normalized to 30 μM dopamine; read-out: D2L arrestin pEC50 (converted)
Target sequence in this assay (P14416 whole entry, looked up): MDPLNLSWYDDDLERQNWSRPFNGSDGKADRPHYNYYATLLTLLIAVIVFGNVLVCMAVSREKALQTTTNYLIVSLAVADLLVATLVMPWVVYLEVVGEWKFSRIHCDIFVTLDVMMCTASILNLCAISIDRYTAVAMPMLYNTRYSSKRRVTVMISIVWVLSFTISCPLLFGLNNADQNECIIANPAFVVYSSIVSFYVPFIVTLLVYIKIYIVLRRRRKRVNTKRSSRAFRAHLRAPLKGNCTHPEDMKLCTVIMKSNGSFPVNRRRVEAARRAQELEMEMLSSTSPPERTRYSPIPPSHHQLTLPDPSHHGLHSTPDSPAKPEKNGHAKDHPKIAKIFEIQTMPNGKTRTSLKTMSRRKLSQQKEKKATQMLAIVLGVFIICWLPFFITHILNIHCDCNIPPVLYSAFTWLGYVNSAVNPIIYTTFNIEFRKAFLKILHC
Target sequence in this assay (P32121 whole entry partner, looked up): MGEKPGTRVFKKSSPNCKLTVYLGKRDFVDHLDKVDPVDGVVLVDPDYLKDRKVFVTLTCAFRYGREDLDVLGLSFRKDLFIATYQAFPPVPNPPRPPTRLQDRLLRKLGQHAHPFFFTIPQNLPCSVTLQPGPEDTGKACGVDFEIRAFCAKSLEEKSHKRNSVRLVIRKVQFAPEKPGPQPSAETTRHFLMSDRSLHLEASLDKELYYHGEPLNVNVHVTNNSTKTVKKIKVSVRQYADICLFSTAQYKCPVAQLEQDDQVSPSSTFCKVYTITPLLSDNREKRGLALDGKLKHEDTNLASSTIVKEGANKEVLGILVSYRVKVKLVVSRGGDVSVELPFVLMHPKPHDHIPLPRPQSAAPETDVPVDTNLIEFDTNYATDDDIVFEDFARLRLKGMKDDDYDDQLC
Method: Measurement of β-Arrestin Recruitment to Human Dopamine D2L Receptors
PathHunter® CHO-K1 cells expressing tagged human D2L receptors and tagged β-arrestin-2 (Eurofins DiscoverX, Fremont, CA, USA) were seeded into 96-well white-walled clear bottom tissue culture plates in 90 μL/cell AssayComplete™ Cell Plating 2 (CP2) reagent (Eurofins DiscoverX) at a density of 20,000 cells/well. The plates were incubated overnight in a humidified atmosphere with 5% CO2 at 37° C. Twenty to twenty-four hours later, 20 μL of test compound or vehicle in CP2 reagent and containing 2.2% DMSO was added to the cells, and they were incubated for 90 minutes at 37° C. Then, 55 μL PathHunter® Detection Reagent (Eurofins DiscoverX) was added per well and plates were incubated for 60 minutes at 25° C., followed by luminescence detection using a PHERAstar® FS multimode plate reader (BMG Labtech, Ortenberg, Germany). Raw data were converted to percent stimulation above basal values. Values were further converted to percent of maximal stimulation of β-arrestin recruitment by 30 μM dopamine. EC50 values were calculated from concentration-response curves of at least six concentrations run in duplicates by sigmoidal fitting using Origin® 7.5 software (OriginLab Corporation, Northampton, MA, USA) and were defined as the concentration of the agonist with half-maximal stimulation.

human 5-HT2A receptors = human 5-HT2A receptors (Homo sapiens (Human), UniProt P28223); experiment: Antagonism at human 5-HT2A receptors, fluorometric Ca2+ detection; format: cell-based; conditions: CHO-K1 cells with Gα16, against EC80 5-HT; read-out: 5-HT2A Ca2+ pIC50 (converted)
Source text: Characterization of Antagonism at Human 5-HT2A Receptors using Fluorometric Ca^2+ Detection
CHO-K1 cells expressing human recombinant 5-HT2A receptors and Gα16 (purchased from Euroscreen Fast, Brussels, BE) in culture were cryopreserved according to established protocols, using 90% FBS/10% DMSO as medium. Prior to the experiment, cells were thawed, resuspended in PowerCHO™ 2 medium (Lonza, Basel, Switzerland) supplemented with 10% fetal bovine serum (FBS), 1% penicillin-streptomycin antimycotic solution, and 1% pyruvate. Cells were seeded in 96-well microplates at a density of 40,000 cells/well and incubated overnight at 37° C. in a humidified atmosphere containing 5.0% CO2. […]
Baseline and agonist-evoked [Ca^2+]i (intracellular Ca^2+) changes were monitored with a FlexStation® II 96 well plate reader (Molecular Devices, San Jose, CA, USA). […] Baseline was recorded for 20 seconds followed by agonist stimulation, when 50 μL 3× concentrated agonist (5-HT at its EC80) solution or assay buffer/vehicle was added to all wells at 75 μL/second using the onboard pipettor, at a height corresponding to 155 μL. Fluorescence was monitored for an additional 20 seconds.
Compounds were evaluated against an EC80 5-HT concentration, as determined on each plate with the built-in curve fitting module of the measurement software (SoftMax® Pro 5.2, Molecular Devices, San Jose, CA, USA). […]

human D3 receptors [3] = biological target: T1, human D3 receptors; experiment: β-arrestin recruitment to human dopamine D3 receptors (PathHunter CHO-K1); format: cell-based
Target sequence in this assay (P35462 whole entry, looked up): as the sequence (P35462 whole entry) above
Target sequence in this assay (P32121 whole entry partner, looked up): as the sequence (P32121 whole entry partner, looked up) above
Method: Measurement of β-Arrestin Recruitment to Human Dopamine D3 Receptors
PathHunter® CHO-K1 cells expressing tagged human D3 receptors and tagged β-arrestin-2 (Eurofins DiscoverX, Fremont, CA, USA) were seeded into 96-well white-walled clear bottom tissue culture plates in 90 μL AssayComplete™ Cell Plating 2 (CP2) reagent (Eurofins DiscoverX) at a density of 25,000 cells/well and incubated overnight in humidified atmosphere with 5% CO2 at 37° C. Twenty to twenty-four hours later, 20 μL of test compounds or vehicle in CP2 reagent containing 2.2% DMSO was added to the cells and the cells were incubated for 90 minutes at 37° C. Following incubation, 55 μL PathHunter® Detection Reagent (Eurofins DiscoverX) was added per well and the plates were incubated for 60 minutes at 25° C. followed by luminescence detection using a PHERAstar® FS multimode plate reader (BMG Labtech, Ortenberg, Germany).
Raw data were first converted to stimulation % above basal values. The stimulation % above basal values were further converted to % of maximal stimulation of β-arrestin recruitment by 1 μM dopamine. EC50 values were calculated from concentration-response curves of at least six concentrations in duplicates by sigmoidal fitting using Origin® 7.5 software (OriginLab© Corporation, Northampton, MA, USA) and were defined as the concentration of the agonist with half-maximal stimulation.

human D2L receptors [4] = biological target: T2, human D2L receptors; experiment: Agonism of human D2L receptors, cAMP detection (HTRF) in CHO-K1 cells; format: cell-based; conditions: inhibition of forskolin-stimulated cAMP accumulation, read-out: D2L cAMP pEC50 (converted)
Target sequence in this assay (P14416 whole entry): as the sequence (P14416 whole entry, looked up) above
Method: Agonist activity at human D2L receptors was assayed by measuring cAMP levels in CHO-K1 cells expressing human D2L receptors (Eurofins DiscoverX, Fremont, CA, USA) by homogenous time-resolved fluorescence (HTRF®) using the cAMP Gi kit (Cisbio/PerkinElmer). CHO-K1 cells expressing human D2L receptors were cultured in Ham's F12 medium supplemented with 10% FBS, 1% penicillin-streptomycin antimycotic solution, and 800 μg/mL G418 (Thermo Fisher Scientific, Waltham, MA, USA) and maintained at 37° C. in a humidified atmosphere containing 5.0% CO2. […] Results were calculated from the ratio of acceptor fluorescence signal (A665 nm) and donor fluorescence signal (A620 nm)×10^4 and expressed as ΔF % values using the following formula: 100×(Ratio Sample-Ratio Negative Control)/Ratio Negative Control. In experiments, all treatments were measured in multiple wells in parallel, and the mean ΔF % values were used for further analysis. Agonist activity values were calculated as percentage of inhibition of forskolin-stimulated cAMP accumulation normalized to the response evoked by a maximally effective concentration of dopamine tested in the same experiment. […]

[5] = Thermodynamic solubility study (37° C., 4 hours); format: physicochemical; conditions: fassgf or other biorelevant, thermodynamic from solid, SIF pH = 6.8, 4 hours, read-out: Thermodynamic sol.
Method: Thermodynamic Solubility Study (37° C., 4 Hours)
The resulted mixtures/oversaturated solutions are shaken at 37° C. for 4 hrs (to the solution equilibrium) and are filtrated on a Millipore MultiSreen Filter Plate (0.45 μm). Concentrations of the filtrates are determined by LC/UV/MS based on a 5-point calibration. (When the solid material dissolved totally in the aqueous test medium the result should be considered as a minimal value.) Results are shown in Table 2.

[6] = test system: phencyclidine-induced hypermotility; experiment: Phencyclidine-induced hypermotility in rats; format: in vivo; conditions: Rattus norvegicus; male Harlan-Wistar rats, percent inhibition, linear regression; read-out: PCP (ED50 mg/kg)
Method: Phencyclidine-Induced Hypermotility in Rats
Spontaneous locomotor activity was measured using a six-channel activity monitor manufactured by Experimetria Ltd. (Budapest, HU). […] Additional arrays of photocells (30 pairs) were placed along opposite sides of the cage at different heights (6.5 cm, 12 cm, 18 cm and 23 cm) in order to detect rearing responses.
Test compounds were administered to study animals either orally or subcutaneously, with ten animals per treatment group. In these studies, male Harlan-Wistar rats (Toxi-Coop, Budapest, HU) weighing 190-210 grams were used. After oral administration of test compound or vehicle, animals were individually habituated to the activity monitors for 30 minutes. In the cases of subcutaneous administration of test compounds, rats were first habituated for 15 minutes to the activity monitors, then treated with the test compound or vehicle followed by replacing them into the activity monitors for an additional 15-minute period of habituation. […]
Data were analyzed using GraphPad® Prism® 9 software (GraphPad, San Diego, CA, USA). […] Drug effect was evaluated using Analysis of Variance (ANOVA, or Welch's ANOVA when appropriate) followed by Dunnett's multiple comparisons test. When appropriate, the ED50 value was determined from percent inhibition data from linear regression analysis.

[7] = test system: apomorphine-induced climbing and sniffing; experiment: Apomorphine-induced climbing and sniffing in mice; format: in vivo; conditions: Mus musculus, sc, male CD1 mice, subcutaneous, 1.5 mg/kg apomorphine
Method: Apomorphine-Induced Climbing and Sniffing in Mice
Male CD1® mice (Envigo, Horst, NL) weighing 24-29 g were used in the experiments (n=12 per treatment group). Climbing and sniffing behavior were measured by visual observation in cylindrical cages.
Immediately after the subcutaneous administration of the vehicle or the test compound, animals were placed into the cages for 10 minutes to habituate. […] After treatment, animals were replaced into the cylindrical cages. The measurement of climbing and sniffing behavior started 10 minutes after the apomorphine treatment (during the 11th minute) and lasted for 16 minutes. Every minute the climbing behavior was scored as follows: four paws on the floor (0 score); forefeet touching the bars (1 score); and four paws grasping the bars (2 score). Animals were also rated for repetitive sniffing as a measure of stereotypy according to the following scale: no sniffing (0 score), moderate sniffing, little snout contact with cage walls or floor (1 score); and constant sniffing, persistent snout contact (2 score).
Data were analyzed using GraphPad Prism 9 software (GraphPad). Scores for both behaviors were tallied for each individual (possible maximum score 32) and group means were calculated. Drug effect was calculated as percent inhibition of the apomorphine-induced behavior. […]

human 5-HT2A receptors, sequence (P28223 whole entry): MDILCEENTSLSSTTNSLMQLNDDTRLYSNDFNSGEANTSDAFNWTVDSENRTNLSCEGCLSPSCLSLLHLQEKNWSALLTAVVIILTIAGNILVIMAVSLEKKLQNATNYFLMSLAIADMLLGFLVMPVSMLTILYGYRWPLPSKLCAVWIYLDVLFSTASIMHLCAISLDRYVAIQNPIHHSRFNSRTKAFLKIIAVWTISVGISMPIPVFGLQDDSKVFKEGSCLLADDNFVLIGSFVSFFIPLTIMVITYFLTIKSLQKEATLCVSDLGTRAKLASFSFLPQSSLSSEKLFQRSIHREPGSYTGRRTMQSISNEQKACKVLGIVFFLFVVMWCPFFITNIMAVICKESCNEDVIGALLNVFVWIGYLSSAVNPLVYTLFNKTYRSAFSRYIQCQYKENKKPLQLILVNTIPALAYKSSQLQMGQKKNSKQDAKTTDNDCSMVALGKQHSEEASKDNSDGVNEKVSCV

Structure (SMILES)	solubility kinetic at 2 h (Kinetic solubility study)	EC50 (human D3 receptors [1])	EC50 (human D2L receptors [2])	IC50 (human 5-HT2A receptors)	EC50 (human D3 receptors [3])	EC50 (human D2L receptors [4])	solubility thermodynamic at 4 h [5]	ED50 [6]	ED50 ([7]; apomorphine-induced climbing, read-out: APO (ED50 cl mg/kg))	ED50 ([7]; apomorphine-induced sniffing, read-out: APO (ED50 sn mg/kg))
COCN(C)C(=O)N[C@H]1CC[C@H](CCN2CCN(c3cccc(Cl)c3Cl)CC2)CC1 [Example 2, N′-[(1r,4r)-4-{2-[4-(2,3-dichlorophenyl)piperazin-1-yl]ethyl}cyclohexyl]-N-(methoxymethyl)-N-methylurea]	47.7 ± 4.5 µM (≈ 21.8 µg/mL)	1.95 nM	0.724 nM	132 nM	3.89 nM	1.32 nM	147 ± 8.72 µM (≈ 67.3 µg/mL)			
CCCOCN(C)C(=O)N[C@H]1CC[C@H](CCN2CCN(c3cccc(Cl)c3Cl)CC2)CC1 [Example 3, N′-[(1r,4r)-4-{2-[4-(2,3-dichlorophenyl)piperazin-1-yl]ethyl}cyclohexyl]-N-methyl-N-(propoxymethyl)urea]	32.4 ± 3.2 µM (≈ 15.7 µg/mL)						32.7 ± 1.65 µM (≈ 15.9 µg/mL)			
CCOCN(C)C(=O)N[C@H]1CC[C@H](CCN2CCN(c3cccc(Cl)c3Cl)CC2)CC1 [Example 1, N′-[(1r,4r)-4-{2-[4-(2,3-dichlorophenyl)piperazin-1-yl]ethyl}cyclohexyl]-N-(ethoxymethyl)-N-methylurea]	72.7 ± 3.4 µM (≈ 34.3 µg/mL)			158 nM			53.5 ± 0.9 µM (≈ 25.2 µg/mL)	0.07 mg/kg	0.1 mg/kg	0.4 mg/kg
CCCN(C)C(=O)N[C@H]1CC[C@H](CCN2CCN(c3cccc(Cl)c3Cl)CC2)CC1 [Ref. Ex. 1, N′-[(1r,4r)-4-{2-[4-(2,3-dichlorophenyl)piperazin-1-yl]ethyl}cyclohexyl]-N-methyl-N-propylurea, reference compound]	10.9 ± 1.7 µM (≈ 4.96 µg/mL)						27.7 ± 1.1 µM (≈ 12.6 µg/mL)			

From patent US12168007B1, “Substituted piperazines as dopamine D3/D2 receptor modulators” (Richter Gedeon Nyrt, priority 2023, dated 2024)
